Measured values reported in the OPERA property sets (Mansouri et al. 2018).
Values after ≈ are worked out from the molar mass of the structure shown.

Conditions: not given

SMILES	logP	solubility [mM]
O=c1[nH]cnc2c1ncn2C1CC(O)C(CO)O1 (stereo unspecified)	-1.71	–
O=c1ccn(C2OC(CO)C(O)C2O)c(=O)n1Cc1ccccc1 (stereo unspecified)	0.33	–
O=[N+]([O-])c1cc(Cl)cc(Cl)c1	3.09	–
CCCCCCCCC	5.65	–
CCOC(=O)c1ccc(OCC)cc1	3.6	–
CCCCN(CCOC(C)=O)c1ccc(N=Nc2c(C#N)cc([N+](=O)[O-])cc2C#N)c(C)c1	5.5	1.32e-06 (≈ 0.00059 µg/mL)
CC(O)CNc1ccccc1C(N)=O (stereo unspecified)	0.62	–
O=C(CCl)N1CCOCC1	-0.6	–
CCCCOC(=O)c1ccccc1C(=O)OCc1ccccc1	4.73	–
c1ccc(N=Nc2ccccc2)cc1	–	0.0351 (≈ 6.4 µg/mL)
O=C(O)c1ccccc1Nc1cccc(Cl)c1	5.43	–
NC(=O)C=Cc1ccc([N+](=O)[O-])o1	0.65	–
CN1C(=O)CC(=O)N(c2ccccc2)c2cc(Cl)ccc21	2.12	–
CSc1nc(N=[N+]=[N-])nc(NC(C)C)n1	3	–
[O-][N+](=Cc1ccccc1)c1ccccc1	1.88	–
Clc1cc2c(Cl)c(Cl)c(Cl)c(Cl)c2cc1Cl	7.7	–
Clc1cc2c(cc1Cl)-c1cc(Cl)c(Cl)cc1-2	6.14	–
COC(=O)CCCCC(=O)OC	–	34.4 (≈ 6000 µg/mL)

Same assay, conditions: 20 °C

SMILES	solubility [mM]
CC(CO)(CO)[N+](=O)[O-]	5920 (≈ 800000 µg/mL)
Clc1ccc(-c2ccc(Cl)cc2)cc1	0.000278 (≈ 0.062 µg/mL)
CCc1cccc(C)c1N(C(=O)CCl)C(C)COC (stereo unspecified)	1.87 (≈ 530 µg/mL)
CCOP(=S)(OCC)ON=C(C#N)c1ccccc1Cl	0.00511 (≈ 1.7 µg/mL)
CC(O)CN(CC(C)O)CC(C)O (stereo unspecified)	4340 (≈ 830000 µg/mL)

Same assay, conditions: 22.0 °C

SMILES	log10 OH rate constant (cm³/molecule/s)
Cc1ccc(C(C)C)cc1	-10.8

Same assay, conditions: 23 °C

SMILES	solubility [mM]
CCOc1cc(OP(=S)(OC)OC)nc(CC)n1	0.137 (≈ 40 µg/mL)

Same assay, conditions: 23.0 °C

SMILES	log10 OH rate constant (cm³/molecule/s)
CCOC(=O)C(C)O (stereo unspecified)	-11.4
CC(=O)CC(C)(C)O	-11.4
CC(=O)C1CC=C(C)CC1 (stereo unspecified)	-9.89
CC1=CC[C@@]23CC1C(C)(C)[C@@H]2CC[C@H]3C	-10.2

Same assay, conditions: 24.0 °C

SMILES	log10 OH rate constant (cm³/molecule/s)
c1ccc(Oc2ccccc2)cc1	-11

Same assay, conditions: 25 °C

SMILES	solubility [mM]
c1ccc2c(c1)[nH]c1ccccc12	0.0108 (≈ 1.8 µg/mL)
C#CCN1C(=O)COc2cc(F)c(N3C(=O)C4=C(CCCC4)C3=O)cc21	0.00505 (≈ 1.79 µg/mL)
Cc1ccc(C(C)C)cc1	0.174 (≈ 23.4 µg/mL)
CNC(=O)Oc1cc(C)cc(C(C)C)c1	0.439 (≈ 91 µg/mL)
O=C(O)c1ccc(C(=O)O)c(C(=O)O)c1	99.9 (≈ 21000 µg/mL)
CCC(C)n1c(=O)[nH]c(C)c(Br)c1=O (stereo unspecified)	3.12 (≈ 815 µg/mL)
O=[N+]([O-])c1ccc(N=Nc2ccc(O)cc2)cc1	0.016 (≈ 3.89 µg/mL)
c1ccc2nc(-c3ccc4ccccc4n3)ccc2c1	0.00398 (≈ 1.02 µg/mL)
Cl[C@H]1[C@H](Cl)[C@@H](Cl)[C@@H](Cl)[C@H](Cl)[C@H]1Cl (racemic)	0.00942 (≈ 2.74 µg/mL)
CC(N)=S	2170 (≈ 163000 µg/mL)
N[C@@H]1[C@H]2CN(c3nc4c(cc3F)c(=O)c(C(=O)O)cn4-c3ccc(F)cc3F)C[C@@H]12	0.0295 (≈ 12.3 µg/mL)
C=C(Cl)CCl	19.4 (≈ 2150 µg/mL)
Clc1ccc(C(c2ccccc2Cl)C(Cl)Cl)cc1 (stereo unspecified)	0.000312 (≈ 0.1 µg/mL)
COc1ccc(C(c2ccc(OC)cc2)C(Cl)(Cl)Cl)cc1	0.000289 (≈ 0.1 µg/mL)
O=C1CCC(N2C(=O)c3ccccc3C2=O)C(=O)N1 (stereo unspecified)	2.11 (≈ 545 µg/mL)
ClC1=C(Cl)[C@]2(Cl)[C@@H]3[C@@H]4C[C@@H]([C@H]5O[C@@H]45)[C@@H]3[C@@]1(Cl)C2(Cl)Cl (single isomer, unassigned)	0.00058 (≈ 0.221 µg/mL)
C[Si](C)(C)O[Si](C)(C)O[Si](C)(C)C	0.000144 (≈ 0.034 µg/mL)
CC(C)c1ccccc1	0.51 (≈ 61.3 µg/mL)
Oc1cc(Cl)cc(Cl)c1	27.6 (≈ 4500 µg/mL)
C=C(C)C(=O)OCC(C)C	9.14 (≈ 1300 µg/mL)
CCCCO[N+](=O)[O-]	9.4 (≈ 1120 µg/mL)
CC(O)COc1ccccc1 (stereo unspecified)	72.3 (≈ 11000 µg/mL)
CON(C)C(=O)Nc1ccc(Cl)c(Cl)c1	0.301 (≈ 75 µg/mL)
CCOC(=O)COc1ccc(Cl)cc1	3.8 (≈ 815 µg/mL)
Cc1cccc(Oc2ccc([N+](=O)[O-])cc2)c1	0.0218 (≈ 5 µg/mL)
c1ccc(Oc2ccccc2)cc1	0.106 (≈ 18 µg/mL)
CCCCOC(=O)c1ccccc1C(=O)OCc1ccccc1	0.00861 (≈ 2.69 µg/mL)
CCC(Cl)(Cl)Cl	12.9 (≈ 1900 µg/mL)
CCCCOP(=O)(OCCCC)Oc1ccccc1	0.335 (≈ 96 µg/mL)
CC(C)(C)c1cccc(C(C)(C)C)c1O	0.0121 (≈ 2.5 µg/mL)

Same assay, conditions: 25.0 °C

SMILES	log10 OH rate constant (cm³/molecule/s)
CC(C)Cl	-12
ClC(Cl)C(Cl)Cl	-12.6
Cl[C@H]1[C@H](Cl)[C@@H](Cl)[C@@H](Cl)[C@H](Cl)[C@H]1Cl (racemic)	-12.8
Clc1ccc(-c2ccc(Cl)cc2)cc1	-11.7
CC(F)(F)CC(F)(F)F	-14.1
FC(F)(F)I	-13.3
CCCN(CCC)C(=O)SCC	-10.5
FC(F)(F)C(F)(F)C(F)(F)C(F)(F)N(C(F)(F)C(F)(F)C(F)(F)C(F)(F)F)C(F)(F)C(F)(F)C(F)(F)C(F)(F)F	< -16.2
FC(F)CC(F)(F)F	-14.1
ClCCCCl	-12.1
OC(C(F)(F)F)C(F)(F)F	-13.6
COC(=O)CCCCC(=O)OC	-11.1

Same assay, conditions: 28 °C

SMILES	solubility [mM]
O=C(O)Cc1c(Cl)ccc(Cl)c1Cl	0.835 (≈ 200 µg/mL)

Same assay, conditions: 30 °C

SMILES	solubility [mM]
ClC(Cl)c1ccccc1	1.55 (≈ 250 µg/mL)
BrC(Br)(Br)Br	0.724 (≈ 240 µg/mL)
